Data reported in PubChem BioAssay AID1963845 (Molecular Pharmacology Branch, DTP, NCI, 2024).

Tested on: 429239-143-T-J1-PDC complex spheroid viability
Test: Anticancer human tumor 429239-143-T-J1-PDC patient-derived small cell lung carcinoma cell line growth inhibition [POLQ]
Conditions: for IC50: curve of first compound; for viability, T/C: stronger effect = lower value
Outline: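 PDC + HUVEC + MSC complex spheroids; POLQ inhibitors ± partner drugs; top conc. at/near clinical Cmax, else 10 microM (SN-38 1 microM), half-log dilutions; 37 degrees C, 5% CO2.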

[1] = second compound 0.0316 µM, first compound 0.0316 µM
[2] = second compound 0.0316 µM, first compound 0.1 µM
[3] = second compound 0.0316 µM, first compound 0.316 µM
[4] = second compound 0.0316 µM, first compound 1 µM
[5] = second compound 0.0316 µM, first compound 3.16 µM
[6] = second compound 0.0316 µM, first compound 10 µM
[7] = second compound 0.1 µM, first compound 0.0316 µM
[8] = second compound 0.1 µM, first compound 0.1 µM
[9] = second compound 0.1 µM, first compound 0.316 µM
[10] = second compound 0.1 µM, first compound 1 µM
[11] = second compound 0.1 µM, first compound 3.16 µM
[12] = second compound 0.1 µM, first compound 10 µM
[13] = second compound 0.316 µM, first compound 0.0316 µM
[14] = second compound 0.316 µM, first compound 0.1 µM
[15] = second compound 0.316 µM, first compound 0.316 µM
[16] = second compound 0.316 µM, first compound 1 µM
[17] = second compound 0.316 µM, first compound 3.16 µM
[18] = second compound 0.316 µM, first compound 10 µM
[19] = second compound 1 µM, first compound 0.0316 µM
[20] = second compound 1 µM, first compound 0.1 µM
[21] = second compound 1 µM, first compound 0.316 µM
[22] = second compound 1 µM, first compound 1 µM
[23] = second compound 1 µM, first compound 3.16 µM
[24] = second compound 1 µM, first compound 10 µM
[25] = second compound 3.16 µM, first compound 0.0316 µM
[26] = second compound 3.16 µM, first compound 0.1 µM
[27] = second compound 3.16 µM, first compound 0.316 µM
[28] = second compound 3.16 µM, first compound 1 µM
[29] = second compound 3.16 µM, first compound 3.16 µM
[30] = second compound 3.16 µM, first compound 10 µM
[31] = second compound 10 µM, first compound 0.0316 µM
[32] = second compound 10 µM, first compound 0.1 µM
[33] = second compound 10 µM, first compound 0.316 µM
[34] = second compound 10 µM, first compound 1 µM
[35] = second compound 10 µM, first compound 3.16 µM
[36] = second compound 10 µM, first compound 10 µM
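Note: luminescence signal used as surrogate measure of viable cells; spheroids exposed to compounds for seven days before readout.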
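Throughout, for viability, T/C: 100% = DMSO vehicle control viability as luminescence relative to vehicle.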

**Q.** `CC1COCCN1c1cc(C2(O)CC3CCC(C2)O3)c2cnn(-c3ccn[nH]3)c2n1` (stereo unspecified) + COC1C(OC(N)=O)C(O)C(Oc2ccc3c(O)c(NC(=O)c4ccc(O)c(CC=C(C)C)c4)c(=O)oc3c2C)OC1(C)C was tested. Which IC50 (second compound 0.0316 µM) did it give?
**A.** 0.0487 µM

**Q.** And the IC50 (second compound 0.1 µM)?
**A.** 0.0636 µM

**Q.** And the IC50 (second compound 0.316 µM)?
**A.** 0.049 µM

**Q.** And the IC50 (second compound 1 µM)?
**A.** 0.0659 µM

**Q.** What about the IC50 (second compound 3.16 µM) of the same molecule?
**A.** 0.0578 µM

**Q.** And the IC50 (second compound 10 µM)?
**A.** 0.0432 µM

**Q.** And the viability, T/C [1]?
**A.** 60.6%

**Q.** And the viability, T/C [2]?
**A.** 32.4%

**Q.** And the viability, T/C [3]?
**A.** 15.4%

**Q.** What about the viability, T/C [4] of the same molecule?
**A.** 9.3%

**Q.** And the viability, T/C [5]?
**A.** 7.39%

**Q.** And the viability, T/C [6]?
**A.** 6.59%

**Q.** What about the viability, T/C [7] of the same molecule?
**A.** 69.8%

**Q.** What about the viability, T/C [8] of the same molecule?
**A.** 37.4%

**Q.** What about the viability, T/C [9] of the same molecule?
**A.** 16%

**Q.** And the viability, T/C [10]?
**A.** 9.73%

**Q.** What about the viability, T/C [11] of the same molecule?
**A.** 7.67%

**Q.** And the viability, T/C [12]?
**A.** 5.38%

**Q.** And the viability, T/C [13]?
**A.** 62.4%

**Q.** What about the viability, T/C [14] of the same molecule?
**A.** 28.4%

**Q.** And the viability, T/C [15]?
**A.** 18.1%

**Q.** What about the viability, T/C [16] of the same molecule?
**A.** 9.94%

**Q.** What about the viability, T/C [17] of the same molecule?
**A.** 6.92%

**Q.** What about the viability, T/C [18] of the same molecule?
**A.** 5.8%

**Q.** And the viability, T/C [19]?
**A.** 67.5%

**Q.** What about the viability, T/C [20] of the same molecule?
**A.** 39.9%

**Q.** What about the viability, T/C [21] of the same molecule?
**A.** 19.2%

**Q.** What about the viability, T/C [22] of the same molecule?
**A.** 7.99%

**Q.** What about the viability, T/C [23] of the same molecule?
**A.** 7.48%

**Q.** What about the viability, T/C [24] of the same molecule?
**A.** 5.25%

**Q.** What about the viability, T/C [25] of the same molecule?
**A.** 69.7%

**Q.** And the viability, T/C [26]?
**A.** 31.6%

**Q.** What about the viability, T/C [27] of the same molecule?
**A.** 17.1%

**Q.** And the viability, T/C [28]?
**A.** 8.72%

**Q.** What about the viability, T/C [29] of the same molecule?
**A.** 6.53%

**Q.** What about the viability, T/C [30] of the same molecule?
**A.** 5.31%

**Q.** And the viability, T/C [31]?
**A.** 56.7%

**Q.** And the viability, T/C [32]?
**A.** 32%

**Q.** And the viability, T/C [33]?
**A.** 18.1%

**Q.** And the viability, T/C [34]?
**A.** 8.41%

**Q.** What about the viability, T/C [35] of the same molecule?
**A.** 9.41%

**Q.** And the viability, T/C [36]?
**A.** 5.38%

**Q.** Which IC50 (second compound 0.0316 µM) does the source give for `CCc1cc2c(N3CCc4c(cc(Cn5ccnc5)cc4-c4cn(C)nc4C(F)(F)F)C3=O)cc(C)nc2c(OC)n1` + COC1C(OC(N)=O)C(O)C(Oc2ccc3c(O)c(NC(=O)c4ccc(O)c(CC=C(C)C)c4)c(=O)oc3c2C)OC1(C)C here?
**A.** 1.47 µM

**Q.** And the IC50 (second compound 0.1 µM)?
**A.** 2.24 µM

**Q.** What about the IC50 (second compound 0.316 µM) of the same molecule?
**A.** 1.39 µM

**Q.** And the IC50 (second compound 1 µM)?
**A.** 1.99 µM

**Q.** And the IC50 (second compound 3.16 µM)?
**A.** 1.41 µM

**Q.** And the IC50 (second compound 10 µM)?
**A.** 0.715 µM

**Q.** What about the viability, T/C [1] of the same molecule?
**A.** 85.5%

**Q.** And the viability, T/C [2]?
**A.** 85.1%

**Q.** What about the viability, T/C [3] of the same molecule?
**A.** 70.6%

**Q.** What about the viability, T/C [4] of the same molecule?
**A.** 50%

**Q.** And the viability, T/C [5]?
**A.** 46.1%

**Q.** What about the viability, T/C [6] of the same molecule?
**A.** 29%

**Q.** What about the viability, T/C [7] of the same molecule?
**A.** 94.5%

**Q.** What about the viability, T/C [8] of the same molecule?
**A.** 88.7%

**Q.** What about the viability, T/C [9] of the same molecule?
**A.** 70%

**Q.** And the viability, T/C [10]?
**A.** 64.3%

**Q.** And the viability, T/C [11]?
**A.** 43.4%

**Q.** What about the viability, T/C [12] of the same molecule?
**A.** 33.4%

**Q.** What about the viability, T/C [13] of the same molecule?
**A.** 95.2%

**Q.** And the viability, T/C [14]?
**A.** 95%

**Q.** And the viability, T/C [15]?
**A.** 65.1%

**Q.** What about the viability, T/C [16] of the same molecule?
**A.** 57.8%

**Q.** What about the viability, T/C [17] of the same molecule?
**A.** 41.5%

**Q.** And the viability, T/C [18]?
**A.** 40.4%

**Q.** And the viability, T/C [19]?
**A.** 90.2%

**Q.** What about the viability, T/C [20] of the same molecule?
**A.** 76%

**Q.** And the viability, T/C [21]?
**A.** 65.8%

**Q.** And the viability, T/C [22]?
**A.** 69.1%

**Q.** And the viability, T/C [23]?
**A.** 37.8%

**Q.** What about the viability, T/C [24] of the same molecule?
**A.** 30.5%

**Q.** What about the viability, T/C [25] of the same molecule?
**A.** 83.8%

**Q.** What about the viability, T/C [26] of the same molecule?
**A.** 83.3%

**Q.** And the viability, T/C [27]?
**A.** 81.7%

**Q.** What about the viability, T/C [28] of the same molecule?
**A.** 52.6%

**Q.** What about the viability, T/C [29] of the same molecule?
**A.** 44.2%

**Q.** And the viability, T/C [30]?
**A.** 31.1%

**Q.** What about the viability, T/C [31] of the same molecule?
**A.** 88.2%

**Q.** And the viability, T/C [32]?
**A.** 82.8%

**Q.** What about the viability, T/C [33] of the same molecule?
**A.** 61.6%

**Q.** And the viability, T/C [34]?
**A.** 44%

**Q.** And the viability, T/C [35]?
**A.** 46.3%

**Q.** And the viability, T/C [36]?
**A.** 34.1%

**Q.** Which IC50 (second compound 0.0316 µM) does the source give for `O=C(c1cc(Cc2n[nH]c(=O)c3ccccc23)ccc1F)N1CCN(C(=O)C2CC2)CC1` + COC1C(OC(N)=O)C(O)C(Oc2ccc3c(O)c(NC(=O)c4ccc(O)c(CC=C(C)C)c4)c(=O)oc3c2C)OC1(C)C here?
**A.** 1.94 µM

**Q.** What about the IC50 (second compound 0.1 µM) of the same molecule?
**A.** 1.96 µM

**Q.** And the IC50 (second compound 0.316 µM)?
**A.** 1.7 µM

**Q.** What about the IC50 (second compound 1 µM) of the same molecule?
**A.** 1.97 µM

**Q.** What about the IC50 (second compound 3.16 µM) of the same molecule?
**A.** 1.7 µM

**Q.** What about the IC50 (second compound 10 µM) of the same molecule?
**A.** 1.36 µM

**Q.** And the viability, T/C [1]?
**A.** 97.2%

**Q.** And the viability, T/C [2]?
**A.** 80.8%

**Q.** And the viability, T/C [3]?
**A.** 79.1%

**Q.** And the viability, T/C [4]?
**A.** 82.3%

**Q.** What about the viability, T/C [5] of the same molecule?
**A.** 26.2%

**Q.** What about the viability, T/C [6] of the same molecule?
**A.** 16.1%

**Q.** And the viability, T/C [7]?
**A.** 82.7%

**Q.** What about the viability, T/C [8] of the same molecule?
**A.** 88.6%

**Q.** What about the viability, T/C [9] of the same molecule?
**A.** 77.8%

**Q.** What about the viability, T/C [10] of the same molecule?
**A.** 74.3%

**Q.** What about the viability, T/C [11] of the same molecule?
**A.** 32.9%

**Q.** And the viability, T/C [12]?
**A.** 18.2%

**Q.** What about the viability, T/C [13] of the same molecule?
**A.** 103%

**Q.** What about the viability, T/C [14] of the same molecule?
**A.** 97.2%

**Q.** And the viability, T/C [15]?
**A.** 86.8%

**Q.** And the viability, T/C [16]?
**A.** 68.9%

**Q.** What about the viability, T/C [17] of the same molecule?
**A.** 28.9%

**Q.** And the viability, T/C [18]?
**A.** 18.2%

**Q.** And the viability, T/C [19]?
**A.** 104%

**Q.** What about the viability, T/C [20] of the same molecule?
**A.** 87.5%

**Q.** What about the viability, T/C [21] of the same molecule?
**A.** 81.2%

**Q.** And the viability, T/C [22]?
**A.** 78.5%

**Q.** And the viability, T/C [23]?
**A.** 30.4%

**Q.** What about the viability, T/C [24] of the same molecule?
**A.** 17.6%

**Q.** What about the viability, T/C [25] of the same molecule?
**A.** 97.3%

**Q.** What about the viability, T/C [26] of the same molecule?
**A.** 86.5%

**Q.** And the viability, T/C [27]?
**A.** 73.8%

**Q.** And the viability, T/C [28]?
**A.** 71.6%

**Q.** What about the viability, T/C [29] of the same molecule?
**A.** 29.2%

**Q.** And the viability, T/C [30]?
**A.** 19%

**Q.** What about the viability, T/C [31] of the same molecule?
**A.** 106%

**Q.** And the viability, T/C [32]?
**A.** 99.6%

**Q.** And the viability, T/C [33]?
**A.** 86.9%

**Q.** And the viability, T/C [34]?
**A.** 60.7%

**Q.** What about the viability, T/C [35] of the same molecule?
**A.** 24.8%

**Q.** And the viability, T/C [36]?
**A.** 16.4%
